# Assay results: patent publication US9751887B2, “Imidazo[1,2-b]pyridazine derivatives as kinase inhibitors” (Daiichi Sankyo Company, Limited, priority 2012, dated 2017)
# Counter-ions that a name gives are not always drawn. Like-named read-outs stand apart in the source and are kept apart here.
# What was measured:
# [1] = tested on: HCC78 cells having ROS1 fusion gene; assay: HCC78 cell growth assay (CellTiter-Glo); type: cell-based; conditions: Homo sapiens, 72 hours culture, 2% FBS medium, luminescence, four separate measurements, read-out: growth inhibitory effect on HCC78 cells having ROS1 fusion gene IC50
# Experimental: Each compound of the present invention was assayed for its cell growth inhibitory effect using HCC78 cells having ROS1 fusion gene.
# The suspension was dispensed at a concentration of 100 μL/well to a 96-well culture plate for cell culture (SUMITOMO BAKELITE, Cat No MS-0096S) (hereinafter, referred to as an assay plate). […] In this context, the final concentration of DMSO was set to 0.4%. Then, the cells were cultured for 72 hours in a CO2 incubator.
# CellTiter-Glo Luminescent Cell Viability Assay reagent (Promega, Cat No G7571) was dispensed at a concentration of 100 μL/well to the assay plate. The contents in each well were reacted at room temperature for 10 minutes while stirred using a plate mixer. […] The luminescence intensity of each well was measured using EnVision. The luminescence intensity of each well obtained in four separate measurements was defined as the number of cells. IC50 values were calculated by curve fitting using GraphPad Prism version 4.
# ROS1 [2] = molecular target: T1, ROS1 (Homo sapiens, UniProt P08922); assay: ROS1 autophosphorylation inhibitory activity evaluation (ADP-Glo); type: biochemical; conditions: 200 nM inactive ROS1, ATP 1 mM, 25° C. 1.5 hours, ADP generated, four separate measurements
# T1 construct: purchased Carna Biosciences 08-163
# Experimental: Fifty mM HEPES (pH 7.5), 10 mM MgCl2, 0.01% Brij-58, and 2.5 mM DTT were mixed to prepare an enzymatic reaction solution. […] ATP (final concentration: 1 mM) was further added thereto at a concentration of 2.5 μL/well. The resulting plate was left standing at 25° C. for 1.5 hours to cause enzymatic reaction. After the completion of enzymatic reaction, ADP-Glo Reagent-1 (Promega, V9103) was added thereto at a concentration of 2.5 μL/well, and the plate was left standing at room temperature for 60 minutes. Then, ADP-Glo Reagent-2 (Promega) was added thereto at a concentration of 5 μL/well, and the plate was left standing at room temperature for 60 minutes. The amount of ADP generated by the autophosphorylation of ROS1 was measured using EnVision (PerkinElmer Japan). The amount of ADP generated in four separate measurements was defined as the autophosphorylation intensity of ROS1. IC50 values were calculated by curve fitting using GraphPad Prism version 4 (GraphPad software).
# ROS1 [3] = molecular target: T1, ROS1; assay: ROS1 kinase inhibitory activity evaluation (mobility shift, EZ Reader II); type: biochemical; conditions: ROS1 25 pg/μL, FL-Peptide 22 substrate, three separate measurements
# Experimental: Next, a substrate reaction solution was prepared. […] Then, the reaction stop solution was added thereto at a concentration of 40 μL/well. Substrate phosphorylation intensity was measured using EZ Reader II (Caliper Life Sciences).
# T1 sequence (P08922 28-2347): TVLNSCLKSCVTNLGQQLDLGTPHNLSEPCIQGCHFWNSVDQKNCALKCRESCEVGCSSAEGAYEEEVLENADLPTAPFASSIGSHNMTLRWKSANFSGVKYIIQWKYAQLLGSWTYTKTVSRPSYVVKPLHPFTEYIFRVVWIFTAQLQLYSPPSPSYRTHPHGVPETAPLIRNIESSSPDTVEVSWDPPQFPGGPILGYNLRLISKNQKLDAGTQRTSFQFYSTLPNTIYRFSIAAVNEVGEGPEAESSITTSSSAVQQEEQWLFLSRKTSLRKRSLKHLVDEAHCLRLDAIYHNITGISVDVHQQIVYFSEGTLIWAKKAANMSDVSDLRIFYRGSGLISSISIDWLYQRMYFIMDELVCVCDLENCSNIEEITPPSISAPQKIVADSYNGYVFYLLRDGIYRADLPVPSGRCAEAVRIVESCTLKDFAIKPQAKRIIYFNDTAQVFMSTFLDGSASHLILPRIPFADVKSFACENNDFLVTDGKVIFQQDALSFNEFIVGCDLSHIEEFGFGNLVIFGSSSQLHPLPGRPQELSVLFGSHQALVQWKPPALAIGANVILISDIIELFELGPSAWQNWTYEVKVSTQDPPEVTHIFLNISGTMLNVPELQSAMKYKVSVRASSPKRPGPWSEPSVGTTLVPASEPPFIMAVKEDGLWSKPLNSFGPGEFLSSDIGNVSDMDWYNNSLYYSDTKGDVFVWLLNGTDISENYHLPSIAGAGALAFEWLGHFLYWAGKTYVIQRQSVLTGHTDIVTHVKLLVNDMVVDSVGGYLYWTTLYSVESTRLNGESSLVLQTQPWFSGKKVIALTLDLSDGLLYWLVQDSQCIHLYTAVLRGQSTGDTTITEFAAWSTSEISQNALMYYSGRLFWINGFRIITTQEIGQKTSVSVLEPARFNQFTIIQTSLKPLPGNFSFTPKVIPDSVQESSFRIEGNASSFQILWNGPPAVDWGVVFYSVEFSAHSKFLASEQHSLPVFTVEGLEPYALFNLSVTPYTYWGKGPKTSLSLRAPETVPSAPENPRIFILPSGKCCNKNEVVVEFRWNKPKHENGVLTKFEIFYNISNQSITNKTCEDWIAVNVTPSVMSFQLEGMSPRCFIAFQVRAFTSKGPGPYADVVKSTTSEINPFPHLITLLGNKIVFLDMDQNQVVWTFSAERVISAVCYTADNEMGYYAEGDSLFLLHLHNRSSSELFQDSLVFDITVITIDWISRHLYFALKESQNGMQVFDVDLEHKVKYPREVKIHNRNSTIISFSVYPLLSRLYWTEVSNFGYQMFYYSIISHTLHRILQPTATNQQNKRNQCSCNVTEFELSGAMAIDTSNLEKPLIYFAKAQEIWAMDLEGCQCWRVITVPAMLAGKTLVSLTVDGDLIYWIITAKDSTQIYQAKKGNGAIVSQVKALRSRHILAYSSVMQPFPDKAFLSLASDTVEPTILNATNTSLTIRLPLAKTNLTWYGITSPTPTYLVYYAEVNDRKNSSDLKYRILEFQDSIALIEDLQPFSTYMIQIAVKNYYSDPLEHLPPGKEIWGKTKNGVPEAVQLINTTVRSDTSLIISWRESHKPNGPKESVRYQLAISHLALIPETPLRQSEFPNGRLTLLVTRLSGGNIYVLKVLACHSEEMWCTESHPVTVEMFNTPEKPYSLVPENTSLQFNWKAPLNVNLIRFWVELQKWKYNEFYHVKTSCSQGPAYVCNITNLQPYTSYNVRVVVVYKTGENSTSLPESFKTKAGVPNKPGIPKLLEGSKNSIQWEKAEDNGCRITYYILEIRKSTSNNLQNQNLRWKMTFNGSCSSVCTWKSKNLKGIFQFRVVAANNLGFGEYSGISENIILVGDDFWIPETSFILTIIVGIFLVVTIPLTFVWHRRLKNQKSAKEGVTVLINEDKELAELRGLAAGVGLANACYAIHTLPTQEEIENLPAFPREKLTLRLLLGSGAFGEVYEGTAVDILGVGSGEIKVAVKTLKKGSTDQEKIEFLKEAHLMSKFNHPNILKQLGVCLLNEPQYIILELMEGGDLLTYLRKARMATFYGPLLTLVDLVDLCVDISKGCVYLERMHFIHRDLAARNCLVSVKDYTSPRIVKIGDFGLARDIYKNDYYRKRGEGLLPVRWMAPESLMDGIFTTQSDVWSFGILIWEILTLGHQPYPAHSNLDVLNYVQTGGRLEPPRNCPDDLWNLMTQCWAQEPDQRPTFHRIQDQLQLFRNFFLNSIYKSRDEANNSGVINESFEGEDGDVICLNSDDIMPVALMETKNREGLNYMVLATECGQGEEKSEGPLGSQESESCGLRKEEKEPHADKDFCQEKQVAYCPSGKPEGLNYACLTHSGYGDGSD
compound,measurement,setting,value
"Fc1cccc(COc2ccc3ncc(-c4ccc(O[C@@H]5CCNC5)cc4)n3n2)c1 [Example 13, 6-[(3-Fluorophenyl)methoxy]-3-[4-[(3R)-pyrrolidin-3-yl]oxyphenyl]imidazo[1,2-b]pyridazine]",IC50,"[1]; HCC78, 72 h",100 to 600 nM
same,IC50,ROS1 [2],100 to 150 nM
same,IC50,ROS1 [3],1 to 10 nM
"CC(Oc1ccc2ncc(-c3ccc(N4C[C@@H](N)CC4=O)cc3)n2n1)c1cn(C(F)F)nn1 (stereo partly drawn) [Example 115, (4S)-4-Amino-1-[4-[6-[1-[1-(difluoromethyl)triazol-4-yl]ethoxy]imidazo[1,2-b]pyridazin-3-yl]phenyl]pyrrolidin-2-one]",IC50,"[1]; HCC78, 72 h",100 to 600 nM
same,IC50,ROS1 [2],100 to 150 nM
same,IC50,ROS1 [3],10 to 60 nM
"C[C@@H](Nc1ccc2ncc(-c3ccc(F)c(OC[C@@H]4CCN4)c3)n2n1)c1cccc(F)c1 [Example 64, 3-[3-[[(2S)-Azetidin-2-yl]methoxy]-4-fluoro-phenyl]-N-[(1R)-1-(3-fluorophenyl)ethyl]imidazo[1,2-b]pyridazin-6-amine]",IC50,"[1]; HCC78, 72 h",100 to 600 nM
same,IC50,ROS1 [2],100 to 150 nM
same,IC50,ROS1 [3],1 to 10 nM
"NCC1CC(=O)N(c2ccc(-c3cnc4ccc(OCc5cccc(F)c5)nn34)cc2)C1 (stereo not drawn) [Example 74, 4-(Aminomethyl)-1-[4-[6-[(3-fluorophenyl)methoxy]imidazo[1,2-b]pyridazin-3-yl]phenyl]pyrrolidin-2-one]",IC50,"[1]; HCC78, 72 h",100 to 600 nM
same,IC50,ROS1 [2],100 to 150 nM
same,IC50,ROS1 [3],1 to 10 nM
"C[C@@H](Nc1ccc2ncc(-c3ccc(OC[C@@H]4C[C@H](F)CN4)nc3)n2n1)c1cccc(F)c1 [Example 47, N-[(1R)-1-(3-Fluorophenyl)ethyl]-3-[6-[[(2S,4S)-4-fluoropyrrolidin-2-yl]methoxy]-3-pyridyl]imidazo[1,2-b]pyridazin-6-amine]",IC50,"[1]; HCC78, 72 h",< 20 nM
same,IC50,ROS1 [2],< 20 nM
same,IC50,ROS1 [3],< 1 nM
"CC(Oc1ccc2ncc(-c3ccc(N4C[C@@H](N)CC4=O)cc3)n2n1)c1cc(F)ccc1-n1nccn1 (stereo partly drawn) [Example 114, (4S)-4-Amino-1-[4-[6-[1-[5-fluoro-2-(triazol-2-yl)phenyl]ethoxy]imidazo[1,2-b]pyridazin-3-yl]phenyl]pyrrolidin-2-one]",IC50,"[1]; HCC78, 72 h",20 to 100 nM
same,IC50,ROS1 [2],< 20 nM
same,IC50,ROS1 [3],< 1 nM
"CN1CCC[C@H]1COc1cccc(-c2cnc3ccc(NCc4ccccc4)nn23)c1 [Example 8, N-Benzyl-3-[3-[[(2S)-1-methylpyrrolidin-2-yl]methoxy]phenyl]imidazo[1,2-b]pyridazin-6-amine]",IC50,"[1]; HCC78, 72 h",20 to 100 nM
same,IC50,ROS1 [2],20 to 100 nM
same,IC50,ROS1 [3],1 to 10 nM
"CN(Cc1cncc(F)c1)c1ccc2ncc(-c3ccc(N4C[C@@H](N)CC4=O)cc3)n2n1 [Example 118, (4S)-4-Amino-1-[4-[6-[(5-fluoro-3-pyridyl)methyl-methylamino]imidazo[1,2-b]pyridazin-3-yl]phenyl]pyrrolidin-2-one]",IC50,"[1]; HCC78, 72 h",< 20 nM
same,IC50,ROS1 [2],< 20 nM
same,IC50,ROS1 [3],1 to 10 nM
"CN(Cc1cncc(Cl)c1)c1ccc2ncc(-c3ccc(N4C[C@@H](N)CC4=O)cc3)n2n1 [Example 122, (4S)-4-Amino-1-[4-[6-[(5-chloro-3-pyridyl)methyl-methylamino]imidazo[1,2-b]pyridazin-3-yl]phenyl]pyrrolidin-2-one]",IC50,"[1]; HCC78, 72 h",20 to 100 nM
same,IC50,ROS1 [2],20 to 100 nM
same,IC50,ROS1 [3],1 to 10 nM
"C[C@@H](Nc1ccc2ncc(-c3ccc(O[C@H]4CCC[C@H]4N)cc3)n2n1)c1cccc(F)c1 [Example 40, 3-[4-[(1S,2R)-2-Aminocyclopentoxy]phenyl]-N-[(1R)-1-(3-fluorophenyl)ethyl]imidazo[1,2-b]pyridazin-6-amine]",IC50,"[1]; HCC78, 72 h",< 20 nM
same,IC50,ROS1 [2],< 20 nM
same,IC50,ROS1 [3],< 1 nM
"CN(Cc1cccnc1)c1ccc2ncc(-c3ccc(N4C[C@@H](N)CC4=O)cc3)n2n1 [Example 117, (4S)-4-Amino-1-[4-[6-[methyl(3-pyridylmethyl)amino]imidazo[1,2-b]pyridazin-3-yl]phenyl]pyrrolidin-2-one]",IC50,[1]; HCC78,20 to 100 nM
same,IC50,ROS1 [2],20 to 100 nM
same,IC50,ROS1 [3],1 to 10 nM
"C[C@@H](Oc1ccc2ncc(-c3ccc(OC[C@@H]4CCN4)cc3)n2n1)c1cccc(F)c1 [Example 18, 3-[4-[[(2S)-Azetidin-2-yl]methoxy]phenyl]-6-[(1R)-1-(3-fluorophenyl)ethoxy]imidazo[1,2-b]pyridazine hydrochloride]",IC50,"[1]; HCC78, 72 h",20 to 100 nM
same,IC50,ROS1 [2],20 to 100 nM
same,IC50,ROS1 [3],< 1 nM
"C[C@@H](Oc1ccc2ncc(-c3ccc(OCC4CCNCC4)cc3)n2n1)c1cccc(F)c1 [Example 17, 6-[(1R)-1-(3-Fluorophenyl)ethoxy]-3-[4-(4-piperidylmethoxy)phenyl]imidazo[1,2-b]pyridazine]",IC50,"[1]; HCC78, 72 h",100 to 600 nM
same,IC50,ROS1 [2],20 to 100 nM
same,IC50,ROS1 [3],1 to 10 nM
CCN(Cc1cccc(F)c1)c1ccc2ncc(-c3ccc(N4C[C@@H](N)CC4=O)cc3)n2n1 [Example 100],IC50,"[1]; HCC78, 72 h",20 to 100 nM
same,IC50,ROS1 [2],< 20 nM
same,IC50,ROS1 [3],1 to 10 nM
"C[C@H](N)COc1ccc(-c2cnc3ccc(N[C@H](C)c4cccc(F)c4)nn23)cn1 [Example 63, 3-[6-[(2S)-2-Aminopropoxy]-3-pyridyl]-N-[(1R)-1-(3-fluorophenyl)ethyl]imidazo[1,2-b]pyridazin-6-amine]",IC50,"[1]; HCC78, 72 h",< 20 nM
same,IC50,ROS1 [2],< 20 nM
same,IC50,ROS1 [3],< 1 nM
"C[C@@H](Nc1ccc2ncc(-c3ccc(OCCCN)cc3)n2n1)c1cccc(F)c1 [Example 28, 3-[4-(3-Aminopropoxy)phenyl]-N-[(1R)-1-(3-fluorophenyl)ethyl]imidazo[1,2-b]pyridazin-6-amine]",IC50,"[1]; HCC78, 72 h",20 to 100 nM
same,IC50,ROS1 [2],< 20 nM
same,IC50,ROS1 [3],< 1 nM
"C[C@@H](Nc1ccc2ncc(-c3cccc(OCCCN)c3)n2n1)c1cccc(F)c1 [Example 68, 3-[3-(3-Aminopropoxy)phenyl]-N-[(1R)-1-(3-fluorophenyl)ethyl]imidazo[1,2-b]pyridazin-6-amine]",IC50,"[1]; HCC78, 72 h",20 to 100 nM
same,IC50,ROS1 [2],< 20 nM
same,IC50,ROS1 [3],1 to 10 nM
"CNCCOc1cccc(-c2cnc3ccc(N[C@H](C)c4cccc(F)c4)nn23)c1 [Example 58, N-[(1R)-1-(3-Fluorophenyl)ethyl]-3-[3-[2-(methylamino)ethoxy]phenyl]imidazo[1,2-b]pyridazin-6-amine]",IC50,"[1]; HCC78, 72 h",20 to 100 nM
same,IC50,ROS1 [2],< 20 nM
same,IC50,ROS1 [3],1 to 10 nM
"C[C@@H](Nc1ccc2ncc(-c3ccc(OCCN)cc3)n2n1)c1cccc(F)c1 [Example 26, 3-[4-(2-Aminoethoxy)phenyl]-N-[(1R)-1-(3-fluorophenyl)ethyl]imidazo[1,2-b]pyridazin-6-amine]",IC50,"[1]; HCC78, 72 h",< 20 nM
same,IC50,ROS1 [2],< 20 nM
same,IC50,ROS1 [3],< 1 nM
"C[C@@H](Nc1ccc2ncc(-c3ccc(O[C@H]4C[C@@H](N)C4)cc3)n2n1)c1cccc(F)c1 [Example 61, 3-[4-(3-cis-Aminocyclobutoxy)phenyl]-N-[(1R)-1-(3-fluorophenyl)ethyl]imidazo[1,2-b]pyridazin-6-amine]",IC50,"[1]; HCC78, 72 h",20 to 100 nM
same,IC50,ROS1 [2],< 20 nM
same,IC50,ROS1 [3],1 to 10 nM
"c1ccc(CNc2ccc3ncc(-c4ccc(O[C@@H]5CCNC5)cc4)n3n2)cc1 [Example 3, N-Benzyl-3-[4-[(3R)-pyrrolidin-3-yl]oxyphenyl]imidazo[1,2-b]pyridazin-6-amine]",IC50,"[1]; HCC78, 72 h",20 to 100 nM
same,IC50,ROS1 [2],20 to 100 nM
same,IC50,ROS1 [3],1 to 10 nM
"CN(Cc1cc(F)ccc1F)c1ccc2ncc(-c3ccc(N4C[C@@H](N)CC4=O)nc3)n2n1 [Example 129, (4S)-4-Amino-1-[5-[6-[(2,5-difluorophenyl)methyl-methylamino]imidazo[1,2-b]pyridazin-3-yl]-2-pyridyl]pyrrolidin-2-one]",IC50,"[1]; HCC78, 72 h",20 to 100 nM
same,IC50,ROS1 [2],20 to 100 nM
same,IC50,ROS1 [3],1 to 10 nM
"CN(Cc1cccc(F)c1F)c1ccc2ncc(-c3ccc(N4C[C@@H](N)CC4=O)nc3)n2n1 [Example 132, (4S)-4-Amino-1-[5-[6-[(2,3-difluorophenyl)methyl-methylamino]imidazo[1,2-b]pyridazin-3-yl]-2-pyridyl]pyrrolidin-2-one]",IC50,"[1]; HCC78, 72 h",20 to 100 nM
same,IC50,ROS1 [2],20 to 100 nM
same,IC50,ROS1 [3],1 to 10 nM
"C[C@@H](Nc1ccc2ncc(-c3ccc(OC[C@@H]4CCN4)cc3F)n2n1)c1cccc(F)c1 [Example 43, 3-[4-[[(2S)-Azetidin-2-yl]methoxy]-2-fluoro-phenyl]-N-[(1R)-1-(3-fluorophenyl)ethyl]imidazo[1,2-b]pyridazin-6-amine]",IC50,"[1]; HCC78, 72 h",< 20 nM
same,IC50,ROS1 [2],< 20 nM
same,IC50,ROS1 [3],< 1 nM
CN(Cc1cncc(F)c1)c1ccc2ncc(-c3ccc(N4C[C@@H](N)CC4=O)c(C#N)c3)n2n1 [Example 130],IC50,"[1]; HCC78, 72 h",100 to 600 nM
same,IC50,ROS1 [2],20 to 100 nM
same,IC50,ROS1 [3],10 to 60 nM
